The nature of this data set: in vitro. The settings on record: rat, gh3-tre-luc cells.

SMILES strings stand for the structures. Where a name gives a salt, the structure may show the parent alone.

One may read the CC50 as the concentration at which the toxic effect on the cells reaches its halfway point. Where the note is “AC50 (uM) modified / 1000”, `Oc1ccc(C2(c3ccc(O)cc3)c3ccccc3-c3ccccc32)cc1` [4,4'-(9H-Fluorene-9,9-diyl)diphenol] showed a CC50 at 24 h of 28.7 µM.
As for `CN(CCO)CC(O)Cn1cnc2c1c(=O)n(C)c(=O)n2C` (stereo not shown) [Xanthinol niacinate], the CC50 at 24 h (AC50 (uM) modified / 1000) was greater than 50 µM.
As for `CC(S)C(=O)NCC(=O)O` (stereo not shown) [Tiopronin], the CC50 at 24 h (AC50 (uM) modified / 1000) is greater than 50 µM.
On to `OC[C@H]1O[C@@H]2O[C@H]3[C@H](O)[C@@H](O)[C@@H](O[C@H]4[C@H](O)[C@@H](O)[C@@H](O[C@H]5[C@H](O)[C@@H](O)[C@@H](O[C@H]6[C@H](O)[C@@H](O)[C@@H](O[C@H]7[C@H](O)[C@@H](O)[C@@H](O[C@H]8[C@H](O)[C@@H](O)[C@@H](O[C@H]1[C@H](O)[C@H]2O)O[C@@H]8CO)O[C@@H]7CO)O[C@@H]6CO)O[C@@H]5CO)O[C@@H]4CO)O[C@@H]3CO` [beta-Cyclodextrin], for which the CC50 at 24 h (AC50 (uM) modified / 1000) was greater than 90 µM.
For the setting “AC50 (uM) modified / 1000”, `COc1ccc(-c2ccc3cc(C(=O)O)ccc3c2)cc1[C@]12C[C@H]3C[C@H](C[C@H](C3)C1)C2` [Adapalene] gave a CC50 at 24 h of 1.88 µM.
`CCC1(CC)C(=O)NC(=O)NC1=O` [Sodium barbital]: under “AC50 (uM) modified / 1000”, the half-maximal cytotoxic concentration (CC50) at 24 h is greater than 90 µM.
Turning to `N[C@@H](Cc1cc(I)c(Oc2ccc(O)c(I)c2)c(I)c1)C(=O)O` [3,5,3ʹ-Triiodothyronine], the CC50 at 24 h (AC50 (uM) modified / 1000) was greater than 70 µM.
As for `O=C(CC(C(=O)OC1CCCCC1)S(=O)(=O)O)OC1CCCCC1` (stereo not shown) [Dicyclohexyl sodium sulfosuccinate], the CC50 at 24 h (AC50 (uM) modified / 1000) is greater than 90 µM.
For the setting “AC50 (uM) modified / 1000”, `c1ccc(OCc2ccc(CCCN3CCOCC3)cc2)cc1` [Fomocaine] returned a CC50 at 24 h of 16.1 µM.
Consider `CN1[C@@H]2CC[C@H]1C[C@@H](OC(=O)c1c[nH]c3ccccc13)C2` [Tropisetron], for which the CC50 at 24 h (AC50 (uM) modified / 1000) was found to be 23.8 µM.
Where the note is “AC50 (uM) modified / 1000”, `O=C1c2c(O)cccc2C([C@@H]2O[C@H](CO)[C@@H](O)[C@H](O)[C@H]2O)c2cc(CO)cc(O)c21` (stereo partly shown) [Aloin] registered a CC50 at 24 h greater than 50 µM.
As to `Cc1cc(C)cc(OCC2CNC(=O)O2)c1` (stereo not shown) [Metaxalone], the CC50 at 24 h (AC50 (uM) modified / 1000) is greater than 50 µM.
Consider `CCCCCCCCOCCCN` [3-(Octyloxy)propan-1-amine], for which the CC50 at 24 h (AC50 (uM) modified / 1000) is 11.8 µM.
`ClCCOCCOCCCl` [1,2-Bis(2-chloroethoxy)ethane] displayed a CC50 at 24 h (AC50 (uM) modified / 1000) greater than 90 µM.
Regarding `[2H]C([2H])([2H])[C@H](N)Cc1ccccc1` [D-Amphetamine-d3 hemisulfate], where the note is “AC50 (uM) modified / 1000”, the CC50 at 24 h was greater than 50 µM.
For `COC(=O)NN` [Methyl carbazate], the CC50 at 24 h (AC50 (uM) modified / 1000) was greater than 90 µM.
Under “AC50 (uM) modified / 1000”, `C=CCc1ccc(O)c(OC)c1` [Eugenol] registered a CC50 at 24 h greater than 90 µM.
`CCCCC(CC)CN1C(=O)[C@@H]2[C@H](C1=O)[C@@H]1C=C[C@H]2C1` (stereo partly shown) [Octylbicycloheptenedicarboximide] came in with a CC50 at 24 h (AC50 (uM) modified / 1000) of 53.7 µM. In other words, the double-digit micromolar range.
Still for that read-out and setting: the figure for `O=S(=O)(O)c1cc(O)c(O)c(S(=O)(=O)O)c1` [Tiron] is greater than 90 µM; for `CCCCN(CCC(=O)OCC)C(C)=O` [Ethyl 3-(N-butylacetamido)propionate] it is greater than 90 µM; for `O=C1NCCN1c1ncc([N+](=O)[O-])s1` [Niridazole] it is greater than 20 µM.
Where the note is “AC50 (uM) modified / 1000”, `CC1=CC[C@H](C(C)C)C=C1` [(R)-alpha-Phellandrene] showed a CC50 at 24 h greater than 90 µM.
The molecule `C=CC(=O)OCC1CC2CC1C1CCC(COC(=O)C=C)C21` (stereo not shown) [Octahydro-1H-4,7-methanoindene-1,5-diyldimethanediyl bisprop-2-enoate] yielded a CC50 at 24 h (AC50 (uM) modified / 1000) of 75.1 µM.
Under “AC50 (uM) modified / 1000”, `O=C(CCS)OCC(COC(=O)CCS)(COC(=O)CCS)COC(=O)CCS` [3-[(3-Sulfanylpropanoyl)oxy]-2,2-bis{[(3-sulfanylpropanoyl)oxy]methyl}propyl 3-sulfanylpropanoate] had a CC50 at 24 h greater than 90 µM.
Still for that read-out and setting: the figure for `COC(=O)c1ccc2cc(C(=O)OC)ccc2c1` [Dimethyl 2,6-naphthalenedicarboxylate] is greater than 20 µM; for `FC(F)(F)C(Cl)(Cl)Cl` [1,1,1-Trichloro-2,2,2-trifluoroethane] it is greater than 90 µM.
Turning to `CCCCCCCC[N+](C)(CCCCCCCC)CCCCCCCC` [Methyltrioctylammonium trifluoromethanesulfonate], for the setting “AC50 (uM) modified / 1000”, the CC50 at 24 h worked out at 4.19 µM.
The molecule `CC[C@@H](C)[C@H](N)C(=O)O` [L-Alloisoleucine] gave a CC50 at 24 h (AC50 (uM) modified / 1000) greater than 50 µM.
`NCc1ccccc1CC(=O)N[C@@H]1C(=O)N2C(C(=O)O)=C(CSc3nnnn3CC(=O)O)CS[C@H]12` [Ceforanide] returned a CC50 at 24 h (AC50 (uM) modified / 1000) greater than 20 µM.
`CNCC[C@@H](Oc1ccccc1C)c1ccccc1` [Atomoxetine hydrochloride] gave a CC50 at 24 h (AC50 (uM) modified / 1000) of 44.9 µM.
The same measure, in the same setting: the figure for `CC(O)CNCC(C)O` (stereo not shown) [Diisopropanolamine] is greater than 90 µM.
For the setting “AC50 (uM) modified / 1000”, `Clc1ccc(C(Cl)(Cl)Cl)c(Cl)c1` [2,4-Dichloro-1-(trichloromethyl)benzene] showed a CC50 at 24 h greater than 90 µM.
`N#CCc1cccc(C(F)(F)F)c1` [[3-(Trifluoromethyl)phenyl]acetonitrile] showed a CC50 at 24 h (AC50 (uM) modified / 1000) greater than 90 µM.
`CSc1ccc(Oc2ccc(S(N)(=O)=O)cc2CN(C)C)cc1C` [UK-416244] displayed a CC50 at 24 h (AC50 (uM) modified / 1000) of 36.3 µM.
Still for that read-out and setting: the figure for `CCCCCCCC/C=C\CCCCCCCC(=O)OC` [Methyl (9Z)-octadec-9-enoate] is greater than 90 µM; for `COc1cc(C)ccc1O` [2-Methoxy-4-methylphenol] it is greater than 90 µM.
On to `Cc1ccc([N+](=O)[O-])cc1` [4-Nitrotoluene], for which the CC50 at 24 h (AC50 (uM) modified / 1000, Tox21_110001=Tox21_201464, viability, 1 nM T3 present, 24 h) was greater than 90 µM.
On to `CNC(=O)O/N=C/C(C)(C)SC` [Aldicarb], for which the CC50 at 24 h (AC50 (uM) modified / 1000) was greater than 90 µM.
Same read-out and setting: the same measure for `O=C1CC2CC1C1CCCC21` (stereo not shown) [Corodane]: greater than 90 µM.
As for `CC1OC(C)OC(C)O1` (stereo not shown) [Paraldehyde], the CC50 at 24 h reads like this: (AC50 (uM) modified / 1000, Tox21_110001=Tox21_111607, viability, 1 nM T3 present, 24 h) greater than 50 µM; (AC50 (uM) modified / 1000, Tox21_110001=Tox21_301299, viability, 1 nM T3 present, 24 h) greater than 90 µM.
As for `CC(CCc1ccc2c(c1)OCO2)NN` (stereo not shown) [Safrazine hydrochloride], the CC50 at 24 h (AC50 (uM) modified / 1000) is greater than 50 µM.
In the case of `O=C(O)CCS` [3-Mercaptopropanoic acid], for the setting “AC50 (uM) modified / 1000”, the CC50 at 24 h was greater than 90 µM.
As for `CCCCCCCc1ccc(O)cc1` [4-Heptylphenol], for the setting “AC50 (uM) modified / 1000, Tox21_110001=Tox21_301548, viability, 1 nM T3 present, 24 h”, the CC50 at 24 h was greater than 90 µM.
On to `CCC(C)OC(=O)c1ccc(O)cc1` (stereo not shown) [sec-Butylparaben], for which, for the setting “AC50 (uM) modified / 1000”, the CC50 at 24 h is greater than 90 µM.
For the setting “AC50 (uM) modified / 1000”, `O=C(O)Cc1cccc2ccccc12` [Potassium 1-naphthaleneacetate] came in with a cytotoxic concentration (CC50) at 24 h greater than 90 µM.
Regarding `CCC(C)(C)OC(=O)N[C@@H](Cc1c[nH]c2ccccc12)C(=O)N[C@@H](CCSC)C(=O)N[C@@H](CC(=O)O)C(=O)N[C@@H](Cc1ccccc1)C(N)=O` [Amogastrin], the CC50 at 24 h (AC50 (uM) modified / 1000) is greater than 50 µM.
`CN1CC[C@@]23CCCC[C@@H]2[C@@H]1Cc1ccc(O)cc13` [Dextrorphan tartrate]: the CC50 at 24 h (AC50 (uM) modified / 1000) was greater than 50 µM.
For `CC1(C)CC(O)CC(C)(C)N1[O]` [4-Hydroxy-2,2,6,6-tetramethylpiperidin-1-yl)oxidanyl], the CC50 at 24 h (AC50 (uM) modified / 1000) is greater than 90 µM.
In turn, `CC(=O)C1CCCCC1=O` (stereo not shown) [Cyclohexanone,2-acetyl-] registered a CC50 at 24 h (AC50 (uM) modified / 1000) greater than 90 µM.
As to `CC(C=O)Cc1ccc2c(c1)OCO2` (stereo not shown), the CC50 at 24 h (AC50 (uM) modified / 1000, Tox21_110001=Tox21_301642, viability, 1 nM T3 present, 24 h) was greater than 90 µM.
In turn, `CC(=NO)C(C)=NO` [Dimethylglyoxime] came in with a CC50 at 24 h (AC50 (uM) modified / 1000) greater than 90 µM.
`COC(=O)C1=C(C#N)NC(C)=C(C(=O)OC(C)C)C1c1cccc([N+](=O)[O-])c1` (stereo not shown) [Nilvadipine] showed a CC50 at 24 h (AC50 (uM) modified / 1000) of 27.9 µM.
Consider `O=C(CC(=O)c1ccccc1)c1ccccc1` [1,3-Diphenyl-1,3-propanedione], for which the CC50 at 24 h (AC50 (uM) modified / 1000) is greater than 100 µM.
`CCOc1ccc(/N=N/c2ccc(N)cc2N)cc1` [Ethoxazene] registered a CC50 at 24 h (AC50 (uM) modified / 1000) greater than 50 µM.
The same measure, in the same setting: the figure for `CCC(=O)O[C@H]1CC[C@H]2[C@@H]3CCc4cc(O)ccc4[C@H]3CC[C@]12C` [beta-Estradiol 17-propionate] is 26.8 µM; for `Cc1ncc(CNC(=O)N(CCCl)N=O)c(N)n1` [Nimustine] it is greater than 50 µM.
On the same count and under the same terms, the figure for `O=C(Nc1ccc(S(=O)(=O)N2CCOCC2)cc1)c1cc(Cl)ccc1NS(=O)(=O)c1ccc(Cl)s1` [Ataciguat] is 24 µM; for `O=C1NC(=O)[C@H]2[C@@H]1[C@@H]1C=C[C@H]2C1` [Noreximide] it is greater than 50 µM.
Under “AC50 (uM) modified / 1000, Tox21_110001=Tox21_201361, viability, 1 nM T3 present, 24 h”, `C=CC(Cl)CCl` (stereo not shown) [3,4-Dichloro-1-butene] came in with a CC50 at 24 h greater than 90 µM.
In turn, `CC[N+](CC)(CCNC(=O)C(=O)NCC[N+](CC)(CC)Cc1ccccc1Cl)Cc1ccccc1Cl` [Ambenonium chloride] displayed a CC50 at 24 h (AC50 (uM) modified / 1000) greater than 50 µM.
As for `CCSC(=O)Cl`, the CC50 at 24 h (AC50 (uM) modified / 1000) is greater than 100 µM.
In the case of `CCOC(=O)CC(SP(=S)(OC)OC)C(=O)OCC` (stereo not shown) [Malathion], the CC50 at 24 h (AC50 (uM) modified / 1000, Tox21_110001=Tox21_111175, viability, 1 nM T3 present, 24 h) is greater than 50 µM and the CC50 at 24 h (AC50 (uM) modified / 1000, Tox21_110001=Tox21_400048, viability, 1 nM T3 present, 24 h) is greater than 90 µM.
Consider `O=S(=O)(O)c1ccc2ccccc2c1` [Sodium 2-naphthalenesulfonate], for which the CC50 at 24 h (AC50 (uM) modified / 1000) is greater than 90 µM.
`CC(N)Cc1ccc2c(c1)OCO2` (stereo not shown) [Tenamfetamine hydrochloride] had a CC50 at 24 h (AC50 (uM) modified / 1000, Tox21_110001=Tox21_113529, viability, 1 nM T3 present, 24 h) greater than 50 µM.
`CN[C@@H]1[C@H](O)[C@H](NC)[C@H]2O[C@@]3(O)C(=O)C[C@@H](C)O[C@H]3O[C@@H]2[C@H]1O` [Spectinomycin dihydrochloride] registered a CC50 at 24 h (AC50 (uM) modified / 1000) greater than 20 µM.
The molecule `CC#CCC(C)[C@H](O)/C=C/[C@@H]1[C@H]2C/C(=C/CCCC(=O)O)C[C@H]2C[C@H]1O` (stereo partly shown) [Iloprost] displayed a CC50 at 24 h (AC50 (uM) modified / 1000) greater than 50 µM.
For the molecule `CCCCOC(=O)c1ccccc1C(=O)O` [Monobutyl phthalate], under “AC50 (uM) modified / 1000”, the CC50 at 24 h was greater than 90 µM.
Under “AC50 (uM) modified / 1000”, `CN(C)CCC=C1c2ccccc2C=Cc2ccccc21` [Cyclobenzaprine hydrochloride] displayed a CC50 at 24 h of 14.5 µM.

The values above are taken from article PMC6792352, “Limited Chemical Structural Diversity Found to Modulate Thyroid Hormone Receptor in the Tox21 Chemical Library” (Environmental Health Perspectives, 2019).
